Data taken from US20190322676A1, “CERAMIDE GALACTOSYLTRANSFERASE INHIBITORS FOR THE TREATMENT OF DISEASE” (BioMarin Pharmaceutical Inc., priority 2016, published 2019).
Where a name gives a salt, the structure may show the parent alone.

What follows are molecules tested against T1, human CGT (ceramide galactosyltransferase), CHO/CGT lysate (Homo sapiens, UniProt Q16880) (assay: CGT enzyme assay, RapidFire/MS/MS readout with 0.01% Tween added (Table 1 ranges with two asterisks **)). Settings: CGT enzymatic assay; range with two asterisks (**): RapidFire/MS/MS method with 0.01% Tween added.
T1 construct: Full-length human CGT cDNA was cloned into the BamH1/Xho1 site of pcDNA3.1 (+); expressed in transfected cells; host or cells: Chinese hamster ovary (CHO) cells; lysate prepared with M-PER
T1 sequence (Q16880 21-541): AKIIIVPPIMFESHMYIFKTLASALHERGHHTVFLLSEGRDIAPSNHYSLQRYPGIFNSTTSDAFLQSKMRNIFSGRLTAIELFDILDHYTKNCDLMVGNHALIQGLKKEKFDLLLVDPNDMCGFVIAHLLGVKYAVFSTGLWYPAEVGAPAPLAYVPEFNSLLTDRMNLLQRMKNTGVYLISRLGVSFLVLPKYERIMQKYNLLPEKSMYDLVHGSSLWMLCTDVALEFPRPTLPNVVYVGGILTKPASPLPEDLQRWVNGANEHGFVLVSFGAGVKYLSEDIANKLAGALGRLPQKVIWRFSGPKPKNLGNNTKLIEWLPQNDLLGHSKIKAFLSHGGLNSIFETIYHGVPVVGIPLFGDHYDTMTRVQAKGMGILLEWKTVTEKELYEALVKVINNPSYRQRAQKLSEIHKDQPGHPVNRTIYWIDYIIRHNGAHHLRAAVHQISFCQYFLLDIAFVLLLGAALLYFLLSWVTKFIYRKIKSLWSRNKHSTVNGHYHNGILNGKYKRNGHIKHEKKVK
Type: biochemical
Outline: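 IC50s come from variable-slope dose-response fits of internal-standard-normalized C6-NBD-dihydro-galactosylceramide, measured by RapidFire/MS/MS (ESI negative). Reactions: 1 h, 37 °C, human CGT-expressing CHO lysate (4 μg), 0.001–50 μM compound, 10 μM NBD-dihydro-ceramide, 17.5 μM UDP-galactose, 0.5% DMSO, pH 7.2; 0.01% Tween 80 added for ** values.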
`N[C@@H]1CC2CCC1N2C(=O)[C@H](NS(=O)(=O)c1ccc2cc(OC3CCCC3)ccc2c1)C(F)(F)c1ccc(-c2ccc(Cl)cc2)cc1` (stereo partly drawn) [Compound 180-3, N-((2S)-3-((2R)-2-amino-7-azabicyclo[2.2.1]heptan-7-yl)-1-(4′-chloro-[1,1′-biphenyl]-4-yl)-1,1-difluoro-3-oxopropan-2-yl)-6-(cyclopentyloxy)naphthalene-2-sulfonamide] was tested, and the IC50 was 1 to 10 µM.
With `N[C@@H]1CC2CCC1N2C(=O)[C@@H](NS(=O)(=O)c1ccc2cc(OC3CCCC3)ccc2c1)C(F)(F)c1ccc(-c2ccc(Cl)cc2)cc1` (stereo partly shown) [Compound 180-4] the IC50 was 1 to 10 µM.
Work on `NC1CCN(C(=O)[C@@H](NS(=O)(=O)c2ccc(OCC3CCCCC3)cc2)C(F)(F)c2cccc(-c3ccc(Cl)cc3)c2)CC1` [Compound 181-1, (R)—N-(3-(4-aminopiperidin-1-yl)-1-(4′-chloro-[1,1′-biphenyl]-3-yl)-1,1-difluoro-3-oxopropan-2-yl)-4-(cyclohexylmethoxy)benzenesulfonamide trifluoroacetate] yielded an IC50 of 1 to 10 µM.
In the case of `NC1CCN(C(=O)[C@H](NS(=O)(=O)c2ccc(OCC3CCCCC3)cc2)C(F)(F)c2cccc(-c3ccc(Cl)cc3)c2)CC1` [Compound 181-2, (S)—N-(3-(4-aminopiperidin-1-yl)-1-(4′-chloro-[1,1′-biphenyl]-3-yl)-1,1-difluoro-3-oxopropan-2-yl)-4-(cyclohexylmethoxy) benzenesulfonamide trifluoroacetate], the IC50 is reported as 1 to 10 µM.
`NC1CCN(C(=O)[C@@H](NS(=O)(=O)c2ccc3cc(OC4CCCC4)ccc3c2)C(F)(F)c2ccc(C3(C(F)(F)F)CC3)cc2)CC1` [Compound 182-1, (R)—N-(3-(4-aminopiperidin-1-yl)-1,1-difluoro-3-oxo-1-(4-(1-(trifluoromethyl)cyclopropyl)phenyl)propan-2-yl)-6-(cyclopentyloxy)naphthalene-2-sulfonamide trifluoroacetate] showed an IC50 of less than 1 µM.
For `NC1CCN(C(=O)[C@H](NS(=O)(=O)c2ccc3cc(OC4CCCC4)ccc3c2)C(F)(F)c2ccc(C3(C(F)(F)F)CC3)cc2)CC1` [Compound 182-2, (S)—N-(3-(4-aminopiperidin-1-yl)-1,1-difluoro-3-oxo-1-(4-(1-(trifluoromethyl)cyclopropyl)phenyl)propan-2-yl)-6-(cyclopentyloxy) naphthalene-2-sulfonamide trifluoroacetate], the IC50 was 10 to 30 µM.
`N[C@H]1[C@@H]2CC[C@H]1CN(C(=O)[C@@H](NS(=O)(=O)c1ccc(OCC3CCCCC3)cc1)C(F)(F)c1ccc(-c3ccc(Cl)cc3)cc1)C2` [Compound 183-1, N-((R)-3-((1R,5S,8R)-8-amino-3-azabicyclo[3.2.1]octan-3-yl)-1-(4′-chloro-[1,1′-biphenyl]-4-yl)-1,1-difluoro-3-oxopropan-2-yl)-4-(cyclohexylmethoxy)benzenesulfonamide] was tested, and the IC50 was less than 1 µM.
`NC1C2CCC1CN(C(=O)[C@H](NS(=O)(=O)c1ccc(OCC3CCCCC3)cc1)C(F)(F)c1ccc(-c3ccc(Cl)cc3)cc1)C2` (stereo partly drawn) [Compound 183-2, N-((S)-3-((1R,5S,8S)-8-amino-3-azabicyclo[3.2.1]octan-3-yl)-1-(4′-chloro-[1,1′-biphenyl]-4-yl)-1,1-difluoro-3-oxopropan-2-yl)-4-(cyclohexylmethoxy)benzenesulfonamide] showed an IC50 of 1 to 10 µM.
`N[C@H]1[C@@H]2CC[C@H]1CN(C(=O)[C@@H](NS(=O)(=O)c1ccc3cc(OC4CCCC4)ccc3c1)C(F)(F)c1ccc(-c3ccc(Cl)cc3)cc1)C2` [Compound 184-1, N-((R)-3-((1R,5S,8R)-8-amino-3-azabicyclo[3.2.1]octan-3-yl)-1-(4′-chloro-[1,1′-biphenyl]-4-yl)-1,1-difluoro-3-oxopropan-2-yl)-6-(cyclopentyloxy)naphthalene-2-sulfonamide] showed an IC50 of 1 to 10 µM.
`N[C@H]1[C@@H]2CC[C@H]1CN(C(=O)[C@H](NS(=O)(=O)c1ccc3cc(OC4CCCC4)ccc3c1)C(F)(F)c1ccc(-c3ccc(Cl)cc3)cc1)C2` [Compound 184-2, N-((S)-3-((1R,5S,8S)-8-amino-3-azabicyclo[3.2.1]octan-3-yl)-1-(4′-chloro-[1,1′-biphenyl]-4-yl)-1,1-difluoro-3-oxopropan-2-yl)-6-(cyclopentyloxy)naphthalene-2-sulfonamide] gave an IC50 of 1 to 10 µM.
`NC1CCN(C(=O)[C@@H](NS(=O)(=O)c2ccc(CCOC3CCCC3)cc2)C(F)(F)c2ccc(-c3ccc(Cl)cc3)cc2)CC1` [Compound 185-1, (R)-N-(3-(4-aminopiperidin-1-yl)-1-(4′-chloro-[1,1′-biphenyl]-4-yl)-1,1-difluoro-3-oxopropan-2-yl)-4-(2-(cyclopentyloxy)ethyl)benzenesulfonamide] was tested, and the IC50 was 10 to 30 µM.
`NC1CCN(C(=O)[C@H](NS(=O)(=O)c2ccc(CCOC3CCCC3)cc2)C(F)(F)c2ccc(-c3ccc(Cl)cc3)cc2)CC1` [Compound 185-2, (S)-N-(3-(4-aminopiperidin-1-yl)-1-(4′-chloro-[1,1′-biphenyl]-4-yl)-1,1-difluoro-3-oxopropan-2-yl)-4-(2-(cyclopentyloxy)ethyl)benzenesulfonamide] was tested, and the IC50 was 30 to 100 µM.
For `N[C@H]1CCN(C(=O)[C@@H](NS(=O)(=O)c2ccc(OCC3CCCCC3)cc2)C(F)(F)c2ccc(Cl)cc2)C1` [Compound 186-1, N-((R)-3-((S)-3-aminopyrrolidin-1-yl)-1-(4-chlorophenyl)-1,1-difluoro-3-oxopropan-2-yl)-4-(cyclohexylmethoxy)benzenesulfonamide], the IC50 was 1 to 10 µM.
With `N[C@H]1CCN(C(=O)[C@H](NS(=O)(=O)c2ccc(OCC3CCCCC3)cc2)C(F)(F)c2ccc(Cl)cc2)C1` [Compound 186-2, N-((S)-3-((S)-3-aminopyrrolidin-1-yl)-1-(4-chlorophenyl)-1,1-difluoro-3-oxopropan-2-yl)-4-(cyclohexylmethoxy)benzenesulfonamide] the IC50 was 30 to 100 µM.
`NC1CCN(C(=O)[C@@H](N(CC(F)(F)F)S(=O)(=O)c2ccc3cc(OC4CCCC4)ccc3c2)C(F)(F)c2ccc(Br)cc2)CC1` [Compound 187-1, (R)-N-(3-(4-aminopiperidin-1-yl)-1-(4-bromophenyl)-1,1-difluoro-3-oxopropan-2-yl)-6-(cyclopentyloxy)-N-(2,2,2-trifluoroethyl)naphthalene-2-sulfonamide] showed an IC50 of 30 to 100 µM.
Molecule `NC1CCN(C(=O)[C@H](N(CC(F)(F)F)S(=O)(=O)c2ccc3cc(OC4CCCC4)ccc3c2)C(F)(F)c2ccc(Br)cc2)CC1` [Compound 187-2, (S)-N-(3-(4-aminopiperidin-1-yl)-1-(4-bromophenyl)-1,1-difluoro-3-oxopropan-2-yl)-6-(cyclopentyloxy)-N-(2,2,2-trifluoroethyl)naphthalene-2-sulfonamide] has an IC50 of 30 to 100 µM.
With `O=C([C@@H](NS(=O)(=O)c1ccc2cc(OC3CCCC3)ccc2c1)C(F)(F)c1ccc(-c2ccc(Cl)cc2)cc1)N1CCNC2(CC2)C1` [Compound 188-1, (R)-N-(1-(4′-chloro-[1,1′-biphenyl]-4-yl)-1,1-difluoro-3-oxo-3-(4,7-diazaspiro[2.5]octan-7-yl)propan-2-yl)-6-(cyclopentyloxy)naphthalene-2-sulfonamide] the IC50 was 1 to 10 µM.
Molecule `O=C([C@H](NS(=O)(=O)c1ccc2cc(OC3CCCC3)ccc2c1)C(F)(F)c1ccc(-c2ccc(Cl)cc2)cc1)N1CCNC2(CC2)C1` [Compound 188-2, (S)-N-(1-(4′-chloro-[1,1′-biphenyl]-4-yl)-1,1-difluoro-3-oxo-3-(4,7-diazaspiro[2.5]octan-7-yl)propan-2-yl)-6-(cyclopentyloxy)naphthalene-2-sulfonamide] has an IC50 of 30 to 100 µM.
Molecule `N[C@@H]1CCN(C(=O)[C@@H](NS(=O)(=O)c2ccc(OCC3CCCCC3)cc2)C(F)(F)c2ccc(Cl)cc2)C1` [Compound 189-1, N-((R)-3-((R)-3-aminopyrrolidin-1-yl)-1-(4-chlorophenyl)-1,1-difluoro-3-oxopropan-2-yl)-4-(cyclohexylmethoxy)benzenesulfonamide] has an IC50 of 1 to 10 µM.
For `N[C@@H]1CCN(C(=O)[C@H](NS(=O)(=O)c2ccc(OCC3CCCCC3)cc2)C(F)(F)c2ccc(Cl)cc2)C1` [Compound 189-2, N-((S)-3-((R)-3-aminopyrrolidin-1-yl)-1-(4-chlorophenyl)-1,1-difluoro-3-oxopropan-2-yl)-4-(cyclohexylmethoxy)benzenesulfonamide], the IC50 was 10 to 30 µM.
For `COc1cc(C(F)(F)[C@H](NS(=O)(=O)c2ccc(OCC3CCCCC3)cc2)C(=O)N2C[C@H]3CNC[C@H]3C2)ccc1-c1ccc(Cl)cc1` [Compound 190-1, N-((R)-1-(4′-chloro-2-methoxy-[1,1′-biphenyl]-4-yl)-1,1-difluoro-3-((3aR,6aS)-hexahydropyrrolo[3,4-c]pyrrol-2(1H)-yl)-3-oxopropan-2-yl)-4-(cyclohexylmethoxy)benzenesulfonamide], the IC50 was 1 to 10 µM.
Molecule `COc1cc(C(F)(F)[C@@H](NS(=O)(=O)c2ccc(OCC3CCCCC3)cc2)C(=O)N2C[C@H]3CNC[C@H]3C2)ccc1-c1ccc(Cl)cc1` [Compound 190-2, N-((S)-1-(4′-chloro-2-methoxy-[1,1′-biphenyl]-4-yl)-1,1-difluoro-3-((3aR,6aS)-hexahydropyrrolo[3,4-c]pyrrol-2(1H)-yl)-3-oxopropan-2-yl)-4-(cyclohexylmethoxy)benzenesulfonamide] has an IC50 of 30 to 100 µM.
